# From patent EP0362382A1, “METHOD OF STERILIZING PLANT POLLEN” (VSESOJUZNY NAUCHNO-ISSLEDOVATELSKY INST. SELSKOKHOZYAISTV. …, priority 1988, dated 1989)
# Columns and labels:
# Sonnenblume = assay: Field test of chemical sterilisation of sunflower pollen; format: in vivo; settings: V. Periode der Organogenese
# Description: (§1) Die gametozide Aktivitat der erfindungsgemäßen Sterilisationsmittel war im Feldversuch in verschiedenen bodenklimatischen Zonen mit Teilstücken von 10 m^2 Größe in drei- bis viermaliger Wiederholung festgestellt. Jedes Sterilisationsmittel wurde mindenstens 5 Jahre lang geprüft.
# (§2) Die Entwicklung der Perioden der Organogenese wird zytologisch überwacht. Die Behandlung von Pflanzen mit dem Sterilisationsmittel erfolgt am Anfang der fünften Periode der Organogenese nach Kupermann.
# Zur Kontrolle der chemischen Sterilisation des Sonnenblumenpollens werden für jede Verbindung 45 behandelte Pflanzen jeder Wiederholung benutzt, wobei 15 Pflanzen von denen zwecks Selbsbestäubung isoliert werden, Blütenkorbchen anderer 15 Pflanzen mit einem Pollengemisch, gesammelt von 20 bis 25 behandelten isolierten Körbchen, bestäubt werden, und 15 Pflanzen für freie Bestäubung gelassen werden, damit das Ansetzen von Achänen mit dem Pollen der väterlichen Form kontrolliert werden kann.
# Man beurteilt die Pollensterilität von Pflanzen der Sonnenblume nach der Pollenfertilität und -keimfähigkeit, nach den morphologischen Besonderheiten von Spermien und nach der Fähigkeit von Achänen zum Ansetzen bei der Bestäubung der behandelten isolierten Pflanzen mit dem Pollen der unbehandelten väterlichen Form. Die Lebensfähigkeit der Eizelle wird nach der Samenbildung von behandelten Pflanzen bei freier Bestäubung mit der väterlichen Form bestimmt.
# Man behandelt die Sonnenblume Sorte BHNNMK 8931 (WNIIMK 8931) in der V. Periode der Organogenese mit 0,5%iger wäßriger Emulsion von 4-Karboxybutyldezylsulfid, mit 1%iger Emulsion der δ, δ' -Sulfonyldivaleriansäure, 2%iger Emulsion von Bis(2-äthylhexyläther) der δ, δ' -Thiodivaleriansäure; die Sonnenblume der Linie BK-373 (WK-373) mit 2%iger Emulsion von Bis(2-äthylhexyläther) der δ δ' --Thiodivaleriansäure, mit 0,2%iger Emulsion von Bis(di--n-butyläther) der δ, δ' -Thiodivaleriansäure; die Sonnenblume der Linie BK=364 (WK-365) mit 2%iger wäßriger Emulsion von Bis(2-äthylhexyläther) der δ, δ' -Thirodivaleriansäure, mit 0,2%iger Emulsion von Bis(di-n-butyläther) der δ, δ' -Thiodivaleriansäure. Die Emulsion enthält 0,1 Masse% Kalziumalkylbenzolsulfonat mit 12 bis 14 Kohlenstoffatomen und 0,01 Masse% Dimethylsulfoxid. Als Kontrolle dienen Pflanzen, behandelt mit einem Verdünner ohne Sterilisationsmittel. Die Prüfergebnisse sind in der Tabelle 17 angegeben. […] Periode der Organogenese erhalten.
# Tritikale = assay: Field test of gametocidal activity (sterilisation of anthers), triticale; format: in vivo; settings: V. Periode der Organogenese, 1,5%ige wäßrige Emulsion
# Description: as §1, §2
# (§3) Mit dem Ährenschieben verwirklicht man die Isolierung von Hauptähren und anderen Stockwerken in Pergamentbeuteln. Bei Weizen und Tritikale werden Einzelisolatoren benutzt. Bei Roggen schließt man je Ähre 5 bis 7 verschiedene nebeneinander befindliche Pflanzen unter einen gemeinsamen Isolator ein. Bei Hierse wird jede Rispe getrennt isoliert. Der Sterilitätsprozentsatz (X) für Weizen, Roggen, Tritikale und Hirse wird nach der Formel [formula] ermittelt.
# (§4) Die Kornzahl in nicht isolierten Ähren von Kontrollpflanzen wird bedingt für 100 % Ansetzen bei freier Bestäubung angenommen.
# (§5) Um zuverlässige Angaben zu erhalten, verwendet man 20 bis 25 Isolatoren jeder Wiederholung für Weizen und Tritikale, 10 .bis 15 Isolatoren jeder Wiederholung für Roggen und Hirse.
# Pflanzen von Tritikale PRAG 109 werden in der V. Periode der Organogenese (nach Kupermann) mit 1,5%iger wäßriger Emulsion von Bis(di-n-butyläther) der δ, δ' -Thiodivaleriansäure, 4-Kaxboxybutyldezylsulfid, Bis(2-Äthylhexyläther) der δ, δ' -Thiodivaleriansäure behandelt. Die Emulsion enthält 0,1 Masse% Kalziumalkylbenzolsulfonat mit 12 bis 14 Kohlenstoffatomen und 0,01 Masse% Tetrahydrofuran. Der Verbrauch an Präparat beträgt 15 kg/ha. Als Kontrolle dienen Pflanzen, behandelt mit einem Verdünner ohne Sterilisationsmittel. Die Prüfergebnisse sind in der Tabelle 12 angegeben. […] Periode der Organogenese erhalten.
# Pflanzen von Tritikale der Sorte Amphidiploid 206 werden in der V. Periode der Organogenese (nach Kupermann) mit 1,5%iger wäßriger Emulsion von Natriumsalz der δ, δ'-Thiodivaleriansäure, δ, δ' -Sulfonyldivaleriansäure Kaliumsalz der d , δ' -Sulfonyldivaleriansäure behandelt. Die Emulsion enthalt 0,1 Masse% Kalziumalkylbenzolsulfonat mit 12 bis 14 Kohlenstoffatomen und 0,01 Masse% Dodezylsulfat. Der Verbrauch an Präparat beträgt 9 kg/ha. Als Kontrolle dienen Pflanzen, behandelt mit einem Verdünner ohne Sterilisationsmittel. Die Prüfergebnisse sind in der Tabelle 13 angegeben. […] Periode der Organogenese erhalten.
# Toxicity in animal test = settings: rat, in vivo; für Ratten
# Procedure: Alle erfindungsgemäßen Thiokarbonsäuren oder ihre De- rivate, die als Sterilisationsmittel zur Verwendung kommen, waren auf die Toxizität im Tierversuch geprüft. Die Prüfergebnisse haben gezeigt, daß die angegebenen Verbindungen von schwacher oder mittlerer Toxizität sind. So beträgt beispielsweise LD50 mehr als 2000 mg/kg für Ratten bei Bis (2-äthylhexyläther) der δ, δ'-Thiodivaleriansäure, bei anderen Verbindungen liegen die LD50 -Werte auf dem gleichen Niveau.
# tetraploidem Roggen = assay: Field test of gametocidal activity (sterilisation of anthers), tetraploid rye; format: in vivo; settings: Sorte Belta; V. Periode der Organogenese; 1%ige wäßrige Emulsion; 6 kg/ha
# Description: as §1, §2, §3, §4, §5
# Pflanzen von tetraploidem Roggen Sorte Belta werden in der V. Periode der Organogenese (nach Kupermann) mit 1%iger wäßriger Emulsion von d, δ' -Thiodivaleriansäure, Natriumsalz der δ, δ' -Thiodivaleriansäure, δ, δ' -Sulfonylvaleriansäure, Natriumsalz der δ, δ' -Sulfonyldivaleriansäure, Kaliumsalz der d, δ' -Sulfonyldivaleriansäure, Bis(di-n-butyläther) der δ, δ' -Thiodivaleriansäure, Bis(2-Äthylhexyläther) der δ, δ'-Thiodivaleriansäure, 4-Karboxybutyldezylsulfid behandelt. Die Emulsion enthält 0,1 Masse% Kalziumalkylbenzolaulfonat und 0,01 Masse% Dimethylsulfoxid. Der Verbrauch an Präparat beträgt 6 kg/ha. Als Kontrolle dienen Pflanzen, behandelt mit einem Verdünner ohne Sterilisationsmittel. Die Prüfergebnisse sind in der Tabelle 11 angegeben. […] Periode der Organogese erhalten.
# [1] = Linie BK-373 (WK-373), Beispiel 78: 2%ige, 79: 0,2%ige Emulsion
# [2] = Linie BK-364 (WK-364), Beispiel 80: 2%ige, 81: 0,2%ige Emulsion
# [3] = Sorte Amphidiploid 206, 9 kg/ha
# [4] = Sorte ВНИИМК 8931 (WNIIMK 8931), Beispiel 75: 0,5%ige, 76: 1%ige, 77: 2%ige Emulsion
smiles,measurement,setting,value
"CCCCC(CC)COC(=O)CCCCSCCCCC(=O)OCC(CC)CCCC (stereo not shown) [Beispiel 78, Bis(2-äthylhexyläther) der δ δ' --Thiodivaleriansäure]",Prozentsatz der Sterilität,Sonnenblume; [1],"100,0%"
same,Prozentsatz des Ansetzens von Achänen bei freier Bestäubung,Sonnenblume; [1],"60,7%"
"CCCCC(CC)COC(=O)CCCCSCCCCC(=O)OCC(CC)CCCC (stereo not shown) [Beispiel 61, Bis(2-Äthylhexyläther) der δ, δ' -Thiodivaleriansäure]",Anzahl von Körnern der Ähre bei freier Bestäubung,"Tritikale; PRAG 109, 15 kg/ha","40,8"
same,Anzahl von Körnern der Ähre im Isolator,"Tritikale; PRAG 109, 15 kg/ha","0,0"
same,Prozentsatz der Sterilität,"Tritikale; PRAG 109, 15 kg/ha","100,0%"
same,Prozentsatz des Ansetzens von Körnern bei freier Bestäubung,"Tritikale; PRAG 109, 15 kg/ha","89,1%"
"CCCCOC(=O)CCCCSCCCCC(=O)OCCCC [Beispiel 81, Bis(di-n-butyläther) der δ, δ' -Thiodivaleriansäure]",Prozentsatz der Sterilität,Sonnenblume; [2],"100,0%"
same,Prozentsatz des Ansetzens von Achänen bei freier Bestäubung,Sonnenblume; [2],"59,3%"
"CCCCC(CC)COC(=O)CCCCSCCCCC(=O)OCC(CC)CCCC (stereo not shown) [Bis (2-äthylhexyläther) der δ, δ'-Thiodivaleriansäure]",LD50,Toxicity in animal test,> 2000 mg/kg
"CCCCOC(=O)CCCCSCCCCC(=O)OCCCC [Beispiel 59, Bis(di-n-butyläther) der δ, δ' -Thiodivaleriansäure]",Anzahl von Körnern der Ähre bei freier Bestäubung,"Tritikale; PRAG 109, 15 kg/ha","40,1"
same,Anzahl von Körnern der Ähre im Isolator,"Tritikale; PRAG 109, 15 kg/ha","0,3"
same,Prozentsatz der Sterilität,"Tritikale; PRAG 109, 15 kg/ha","99,3%"
same,Prozentsatz des Ansetzens von Körnern bei freier Bestäubung,"Tritikale; PRAG 109, 15 kg/ha","87,6%"
"O=C(O)CCCCS(=O)(=O)CCCCC(=O)O [Beispiel 64, Kaliumsalz der d , δ' -Sulfonyldivaleriansäure]",Anzahl von Körnern der Ähre bei freier Bestäubung,Tritikale; [3],"29,8"
same,Anzahl von Körnern der Ähre im Isolator,Tritikale; [3],"0,0"
same,Prozentsatz der Sterilität,Tritikale; [3],"100,0%"
same,Prozentsatz des Ansetzens von Körnern bei freier Bestäubung,Tritikale; [3],"81,4%"
"CCCCC(CC)COC(=O)CCCCSCCCCC(=O)OCC(CC)CCCC (stereo not shown) [Beispiel 77, Bis(2-äthylhexyläther) der δ, δ' -Thiodivaleriansäure]",Prozentsatz der Sterilität,Sonnenblume; [4],"100,0%"
same,Prozentsatz des Ansetzens von Achänen bei freier Bestäubung,Sonnenblume; [4],"82,1%"
"CCCCOC(=O)CCCCSCCCCC(=O)OCCCC [Beispiel 79, Bis(di--n-butyläther) der δ, δ' -Thiodivaleriansäure]",Prozentsatz der Sterilität,Sonnenblume; [1],"100,0%"
same,Prozentsatz des Ansetzens von Achänen bei freier Bestäubung,Sonnenblume; [1],"62,7%"
"CCCCC(CC)COC(=O)CCCCSCCCCC(=O)OCC(CC)CCCC (stereo not shown) [Beispiel 80, Bis(2-äthylhexyläther) der δ, δ' -Thirodivaleriansäure]",Prozentsatz der Sterilität,Sonnenblume; [2],"100,0%"
same,Prozentsatz des Ansetzens von Achänen bei freier Bestäubung,Sonnenblume; [2],"67,9%"
"O=C(O)CCCCS(=O)(=O)CCCCC(=O)O [Beispiel 63, δ, δ' -Sulfonyldivaleriansäure]",Anzahl von Körnern der Ähre bei freier Bestäubung,Tritikale; [3],"30,1"
same,Anzahl von Körnern der Ähre im Isolator,Tritikale; [3],"0,1"
same,Prozentsatz der Sterilität,Tritikale; [3],"99,7%"
same,Prozentsatz des Ansetzens von Körnern bei freier Bestäubung,Tritikale; [3],"82,2%"
"O=C(O)CCCCSCCCCC(=O)O [Beispiel 62, Natriumsalz der δ, δ'-Thiodivaleriansäure]",Anzahl von Körnern der Ähre bei freier Bestäubung,Tritikale; [3],"32,5"
same,Anzahl von Körnern der Ähre im Isolator,Tritikale; [3],"0,9"
same,Prozentsatz der Sterilität,Tritikale; [3],"97,2%"
same,Prozentsatz des Ansetzens von Körnern bei freier Bestäubung,Tritikale; [3],"88,8%"
"O=C(O)CCCCS(=O)(=O)CCCCC(=O)O [Beispiel 76, δ, δ' -Sulfonyldivaleriansäure]",Prozentsatz der Sterilität,Sonnenblume; [4],"100,0%"
same,Prozentsatz des Ansetzens von Achänen bei freier Bestäubung,Sonnenblume; [4],"71,6%"
"CCCCCCCCCCSCCCCC(=O)O [Beispiel 60, 4-Kaxboxybutyldezylsulfid]",Anzahl von Körnern der Ähre bei freier Bestäubung,"Tritikale; PRAG 109, 15 kg/ha","42,3"
same,Anzahl von Körnern der Ähre im Isolator,"Tritikale; PRAG 109, 15 kg/ha","0,0"
same,Prozentsatz der Sterilität,"Tritikale; PRAG 109, 15 kg/ha","100,0%"
same,Prozentsatz des Ansetzens von Körnern bei freier Bestäubung,"Tritikale; PRAG 109, 15 kg/ha","92,4%"
"CCCCCCCCCCSCCCCC(=O)O [Beispiel 75, 4-Karboxybutyldezylsulfid]",Prozentsatz der Sterilität,Sonnenblume; [4],"100,0%"
same,Prozentsatz des Ansetzens von Achänen bei freier Bestäubung,Sonnenblume; [4],"82,9%"
"O=C(O)CCCCS(=O)(=O)CCCCC(=O)O [Beispiel 53, δ, δ' -Sulfonylvaleriansäure]",Anzahl von Körnern der Ähre bei freier Bestäubung,tetraploidem Roggen,"39,0"
same,Anzahl von Körnern der Ähre im Isolator,tetraploidem Roggen,"0,0"
same,Prozentsatz der Sterilität,tetraploidem Roggen,"100,0%"
same,Prozentsatz des Ansetzens von Körnern bei freier Bestäubung,tetraploidem Roggen,"88,2%"
